Test results as given in PubChem BioAssay AID1963970 (Molecular Pharmacology Branch, DTP, NCI, 2024).
Where “and” joins values, the source holds several entries; their conditions need not be identical. Identical values can stand only once.

System: 931267-113-T-J1-PDC multicell spheroid viability
Test: Anticancer human tumor 931267-113-T-J1-PDC patient-derived colon adenocarcinoma cell line growth inhibition [PI3K]
Settings: for viability, T/C: stronger effect = lower value
From the text: Combinatorial screen of targeted agents with the PI3K inhibitors inavolisib, alpelisib, duvelisib, and copanlisib in multi-cell type tumor spheroids
A high-throughput screen of multi-cell type tumor spheroids was designed to identify active combinations of targeted small molecules and PI3K pathway inhibitors. Complex spheroids include a stromal component modeled by human endothelial cells (HUVEC) and fibroblasts modeled by human mesenchymal stem cells (MSCs). The concentration ranges selected for each drug and investigational agent were based upon clinically achievable concentrations if the clinical Cmax of the agent was known.
Compounds. The drugs and investigational agents: inavolisib (NSC800729), alpelisib (NSC765974), duvelisib (NSC772469), copanlisib (NSC816437), ipatasertib (NSC767898), afuresertib (NSC778305), talazoparib (NSC767125), sapanisertib (NSC764658), selumetinib (NSC741078), tovorafenib (DAY101, NSC766906), vemurafenib (NSC761431), ravoxertinib (NSC781343), sotorasib (NSC818433), MRTX1133 (NSC 836407), abemaciclib (NSC 768073), palbociclib (NSC758247), venetoclax (NSC 766270), SY5609 (NSC837396), enzalutamide (NSC755605), and darolutamide (NSC825331), were obtained from the National Cancer Institute (NCI) Developmental Therapeutics Program Chemical Repository. The FDA-approved anticancer drug set is available from the NCI Developmental Therapeutics Program. […] The stock solutions were prepared in dimethyl sulfoxide (DMSO, Sigma-Aldrich, St. Louis, MO, cat. D2650) at 800-fold the tested concentration and stored at -70 degrees C prior to their use. All drugs and investigational agents were tested over a range starting from a high concentration at or near the clinical Cmax and decreasing in half-log increments. If the clinical Cmax for an agent had not been determined, the highest concentration tested was 10 microM.
Cell Culture. All cells were maintained in an incubator at 37 degrees C and 5% CO2 with 95% humidity. The PDC lines were cultured according to standard operating procedures established by the NCI PDMR (https://pdmr.cancer.gov/sops/default.htm). All PDCs were thawed and cultured in Matrigel-coated flasks prepared with a working solution of 1X Ham's F-12 nutrient mix, without supplementation (Invitrogen, Waltham, MA, cat. 11765054), 100 U/mL penicillin-streptomycin (Invitrogen, cat. 15140122), and 2.5% Matrigel (Corning Inc., Corning, NY, cat. 354248) for the first three passages. The 354836-022-R-J1-PDC, 475296-252-R-J1-PDC, and 997726-040-R-J2-PDC lines were cultured in 6A media, which includes advanced DMEM/F-12 (Thermo Fisher Scientific, cat. 12634028), 10 mM HEPES (Thermo Fisher Scientific, cat. 15630080), 1X GlutaMAX supplement (Thermo Fisher Scientific, cat. 35050061), 0.1 mg/mL primocin (InvivoGen, San Diego, CA, cat. ant-pm-2), 10% defined fetal bovine serum, heat inactivated (HyClone Laboratories Inc., Logan, UT, cat. SH30070.03HI), 50% L-WRN conditioned media (ATCC, cat. CRL-3276), 1.25 mM N-Acetyl-L-cysteine (Sigma-Aldrich, cat. A9165), 10 mM nicotinamide (Sigma-Aldrich, cat. N0636), 1X B-27 supplement (Thermo Fisher Scientific, cat. 17504044), 1X N-2 supplement (Thermo Fisher Scientific, cat. 17502048), and 10 microM Y-27632 dihydrochloride (Tocris Bioscience, Bristol, United Kingdom, cat. 1254). The 624824-186-R-J2-PDC line was cultured in 6C/Colon 1B media, which includes all 6A media components plus 50 ng/mL human EGF recombinant protein (Thermo Fisher Scientific, cat. PHG0311). […]

[1] = curve of first compound, second compound 0.0316 µM
[2] = curve of first compound, second compound 0.1 µM
[3] = curve of first compound, second compound 0.316 µM
[4] = curve of first compound, second compound 1 µM
[5] = second compound 0.0316 µM, first compound 0.0316 µM
[6] = second compound 0.0316 µM, first compound 0.1 µM
[7] = second compound 0.0316 µM, first compound 0.316 µM
[8] = second compound 0.0316 µM, first compound 1 µM
[9] = second compound 0.0316 µM, first compound 3.16 µM
[10] = second compound 0.0316 µM, first compound 10 µM
[11] = second compound 0.1 µM, first compound 0.0316 µM
[12] = second compound 0.1 µM, first compound 0.1 µM
[13] = second compound 0.1 µM, first compound 0.316 µM
[14] = second compound 0.1 µM, first compound 1 µM
[15] = second compound 0.1 µM, first compound 3.16 µM
[16] = second compound 0.1 µM, first compound 10 µM
[17] = second compound 0.316 µM, first compound 0.0316 µM
[18] = second compound 0.316 µM, first compound 0.1 µM
[19] = second compound 0.316 µM, first compound 0.316 µM
[20] = second compound 0.316 µM, first compound 1 µM
[21] = second compound 0.316 µM, first compound 3.16 µM
[22] = second compound 0.316 µM, first compound 10 µM
[23] = second compound 1 µM, first compound 0.0316 µM
[24] = second compound 1 µM, first compound 0.1 µM
[25] = second compound 1 µM, first compound 0.316 µM
[26] = second compound 1 µM, first compound 1 µM
[27] = second compound 1 µM, first compound 3.16 µM
[28] = second compound 1 µM, first compound 10 µM
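Further: viability read 7 days after compound addition.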

`Cn1nccc1Nc1nccc(-c2ccn(C(CO)c3ccc(Cl)c(F)c3)c(=O)c2)n1` (configuration not stated) + CC(Nc1ccc2c(c1)OCCn1cc(N3C(=O)OCC3C(F)F)nc1-2)C(N)=O gave an IC50 (curve of first compound, second compound 0.00316 µM) of 8.42 µM, an IC50 (curve of first compound, second compound 0.01 µM) of 3.65 µM and an IC50 [1] of 4.15 µM. For the same compound, the IC50 [2] was 2.89 µM, the IC50 [3] was 1.74 µM and the IC50 [4] was 1.09 µM. It also gave a viability, T/C (second compound 0.00316 µM, first compound 0.0316 µM) of 96.7%, a viability, T/C (second compound 0.00316 µM, first compound 0.1 µM) of 98.6% and a viability, T/C (second compound 0.00316 µM, first compound 0.316 µM) of 88.6%. The viability, T/C (second compound 0.00316 µM, first compound 1 µM) was 81.2%, the viability, T/C (second compound 0.00316 µM, first compound 3.16 µM) was 64.5% and the viability, T/C (second compound 0.00316 µM, first compound 10 µM) was 47.4%. The viability, T/C (second compound 0.01 µM, first compound 0.0316 µM) was 99%, the viability, T/C (second compound 0.01 µM, first compound 0.1 µM) was 92.4% and the viability, T/C (second compound 0.01 µM, first compound 0.316 µM) was 97.2%. The viability, T/C (second compound 0.01 µM, first compound 1 µM) was 79.9%, the viability, T/C (second compound 0.01 µM, first compound 3.16 µM) was 52.3% and the viability, T/C (second compound 0.01 µM, first compound 10 µM) was 37.2%. For the same compound, the viability, T/C [5] was 99.5%, the viability, T/C [6] was 91.5% and the viability, T/C [7] was 82.6%. The viability, T/C [8] was 74.3%, the viability, T/C [9] was 54.4% and the viability, T/C [10] was 33.1%. It also gave a viability, T/C [11] of 102%, a viability, T/C [12] of 86.1% and a viability, T/C [13] of 86.1%. It also gave a viability, T/C [14] of 69.8%, a viability, T/C [15] of 46.5% and a viability, T/C [16] of 25.9%. For the same compound, the viability, T/C [17] was 91.7%, the viability, T/C [18] was 76.2% and the viability, T/C [19] was 73%. For the same compound, the viability, T/C [20] was 61.8%, the viability, T/C [21] was 38.6% and the viability, T/C [22] was 18%. For the same compound, the viability, T/C [23] was 72.8%, the viability, T/C [24] was 76.5% and the viability, T/C [25] was 68.8%. For the same compound, the viability, T/C [26] was 51%, the viability, T/C [27] was 29.2% and the viability, T/C [28] was 17.7%.
In the case of `CC1(C)CCC(Nc2ncc(C(F)(F)F)c(-c3c[nH]c4c(P(C)(C)=O)c(C#N)ccc34)n2)CN1` (configuration not stated), the viability, T/C (compound 0.0316 µM) is reported as 107% [middle of 4 runs], the viability, T/C (compound 0.1 µM) is reported as 102% [middle of 4 runs] and the viability, T/C (compound 0.316 µM) is reported as 89.3% [middle of 4 runs]. The viability, T/C (compound 1 µM) was 85.7% [middle of 4 runs], the viability, T/C (compound 10 µM) was 64.5% [middle of 4 runs] and the IC50 (curve of compound) was over 10 µM.
`C=CC(=O)N1CCN(c2nc(=O)n(-c3c(C)ccnc3C(C)C)c3nc(-c4c(O)cccc4F)c(F)cc23)C(C)C1` (configuration not stated) + CC(Nc1ncnc2nc[nH]c12)c1cc2cccc(Cl)c2c(=O)n1-c1ccccc1 showed an IC50 [1] of over 10 µM, an IC50 [2] of over 10 µM and an IC50 [3] of over 10 µM. The IC50 [4] was over 10 µM, the IC50 (curve of first compound, second compound 3.16 µM) was over 10 µM and the IC50 (curve of first compound, second compound 10 µM) was over 10 µM. For the same compound, the viability, T/C [5] was 97.5%, the viability, T/C [6] was 103% and the viability, T/C [7] was 96.6%. For the same compound, the viability, T/C [8] was 111%, the viability, T/C [9] was 107% and the viability, T/C [10] was 107%. The viability, T/C [11] was 110%, the viability, T/C [12] was 113% and the viability, T/C [13] was 107%. The viability, T/C [14] was 111%, the viability, T/C [15] was 117% and the viability, T/C [16] was 94.2%. It also gave a viability, T/C [17] of 112%, a viability, T/C [18] of 109% and a viability, T/C [19] of 116%. For the same compound, the viability, T/C [20] was 107%, the viability, T/C [21] was 114% and the viability, T/C [22] was 96.5%. The viability, T/C [23] was 108%, the viability, T/C [24] was 109% and the viability, T/C [25] was 99.5%. It also gave a viability, T/C [26] of 105%, a viability, T/C [27] of 111% and a viability, T/C [28] of 88.3%. The viability, T/C (second compound 3.16 µM, first compound 0.0316 µM) was 104%, the viability, T/C (second compound 3.16 µM, first compound 0.1 µM) was 101% and the viability, T/C (second compound 3.16 µM, first compound 0.316 µM) was 93.5%. For the same compound, the viability, T/C (second compound 3.16 µM, first compound 1 µM) was 99.9%, the viability, T/C (second compound 3.16 µM, first compound 3.16 µM) was 107% and the viability, T/C (second compound 3.16 µM, first compound 10 µM) was 87%. The viability, T/C (second compound 10 µM, first compound 0.0316 µM) was 94.9%, the viability, T/C (second compound 10 µM, first compound 0.1 µM) was 96.8% and the viability, T/C (second compound 10 µM, first compound 0.316 µM) was 107%. For the same compound, the viability, T/C (second compound 10 µM, first compound 1 µM) was 98.1%, the viability, T/C (second compound 10 µM, first compound 3.16 µM) was 106% and the viability, T/C (second compound 10 µM, first compound 10 µM) was 102%.
With `CNC(=O)c1ccc(N2C(=S)N(c3ccc(C#N)c(C(F)(F)F)c3)C(=O)C2(C)C)cc1F` the viability, T/C (compound 0.0316 µM) was 104% [middle of 4 runs], the viability, T/C (compound 0.1 µM) was 103% [middle of 4 runs] and the viability, T/C (compound 0.316 µM) was 98.2% [middle of 4 runs]. The viability, T/C (compound 1 µM) was 101% [middle of 4 runs], the viability, T/C (compound 3.16 µM) was 102% and 108% (2×) and 105% and the viability, T/C (compound 10 µM) was 108% and 105% (2×) and 93.6%. For the same compound, the IC50 (curve of compound) was over 10 µM.
